Reference: BindingDB's records for patent US11787796 (Takeda Pharmaceutical, 2023)

Molecular target: Plasma kallikrein (Homo sapiens, UniProt P03952)
Experiment: Inhibitory Activity of Exemplary Compounds Against Plasma Kallikrein
Experimental: Example compounds were evaluated for inhibition of the human activated kallikrein enzyme in two formats of an assay employing a fluorogenic peptide substrate. In one assay format, the concentrations of reagents were as follows: 20 mM Tris pH 7.5, 1 mM EDTA, 150 mM sodium chloride, 0.1% PEG-400, 0.1% Triton X-100, […], 300 uM Pro-Phe-Arg-7-amido-4-methylcoumarin substrate. Prior to reaction initiation with substrate, enzyme and inhibitors were preincubated for 30 min at RT. After initiation with substrate, reactions were incubated for 10 min at RT and fluorescence emission at 460 nm from 380 nm excitation measured with a microplate reader. In another assay format, the concentrations of reagents were as follows: 20 mM Tris pH 7.5, 1 mM EDTA, 150 mM sodium chloride, 0.1% PEG-400, 0.1% Triton X-100, 5 pM activated kallikrein enzyme, 300 uM Pro-Phe-Arg-7-amido-4-methylcoumarin substrate. Prior to reaction initiation with substrate, enzyme and inhibitors were preincubated for 30 min at RT. After initiation with substrate, reactions were incubated for 18 h at RT and fluorescence emission at 460 nm from 380 nm excitation measured with a microplate reader.

Chain of Plasma kallikrein (P03952 20-390 limits assumed): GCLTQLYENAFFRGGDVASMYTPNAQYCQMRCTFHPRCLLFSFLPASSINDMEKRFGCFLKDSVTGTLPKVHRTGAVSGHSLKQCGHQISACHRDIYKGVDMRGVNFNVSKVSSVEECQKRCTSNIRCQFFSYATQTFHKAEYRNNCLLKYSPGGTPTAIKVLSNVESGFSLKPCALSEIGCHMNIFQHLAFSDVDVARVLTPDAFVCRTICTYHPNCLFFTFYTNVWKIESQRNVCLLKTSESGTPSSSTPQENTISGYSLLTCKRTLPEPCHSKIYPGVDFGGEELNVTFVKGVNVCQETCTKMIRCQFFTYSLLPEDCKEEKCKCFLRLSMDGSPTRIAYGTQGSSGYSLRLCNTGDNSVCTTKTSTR
Chain of Plasma kallikrein (P03952 391-638 limits assumed): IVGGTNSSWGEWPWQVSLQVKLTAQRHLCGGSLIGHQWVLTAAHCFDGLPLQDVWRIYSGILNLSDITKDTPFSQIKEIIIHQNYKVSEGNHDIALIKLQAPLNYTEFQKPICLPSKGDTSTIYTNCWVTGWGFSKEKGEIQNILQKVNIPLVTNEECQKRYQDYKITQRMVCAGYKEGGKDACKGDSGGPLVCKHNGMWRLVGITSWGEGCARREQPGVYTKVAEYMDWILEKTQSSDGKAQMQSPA

EC50: < 1 nM
Structure (SMILES): COc1ccc(-n2cnnn2)c(CNC(=O)c2nnn(Cc3cn4cc(C5CC5)ccc4n3)n2)c1F [US11787796, Compound I-28]
